Measurements reported in patent US20040044405A1, “Vascular stent or graft coated or impregnated with protein tyrosine kinase inhibitors and method of using same” (priority 2001, published 2004).

Columns and labels:
PKC = conditions: cited from earlier work
Porcine coronary VSMCs = assay: Porcine coronary VSMC proliferation, BrdU incorporation ELISA after PDGF stimulation; format: cell-based; conditions: PDGF 20 ng/mL, STI-571, FIG. 1
Experimental: BrdU was added to the wells for the last 5 hours of the stimulation period.

[1] = tested on: Porcine aortic vascular endothelial cells; assay: Porcine aortic vascular endothelial cell proliferation, BrdU incorporation ELISA after VEGF stimulation; format: cell-based; conditions: VEGF 20 ng/mL for 24 hours, STI-571, FIG. 2
Experimental: Porcine aortic vascular endothelial cells were grown to subconfluence in 96-well plates with DME media containing 10% FBS at 37° C. for 3 to 5 days. […] BrdU was added to the wells for the last 5 hours of the stimulation period. The cells were subsequently dried for 24 hours at 60° C., fixed and denatured, and BrdU incorporation determined using the Roche ELISA described in Example 1.

[2] = tested on: human coronary artery vascular smooth muscle cells; assay: DNA synthesis in human coronary artery vascular smooth muscle cells, BrdU assay; format: cell-based; conditions: 10% FBS for 48 hours, FIG. 4
[3] = tested on: human coronary artery vascular smooth muscle cells; assay: Migration of human coronary artery vascular smooth muscle cells through porous membrane in response to PDGF; format: cell-based; conditions: PDGF-ββ 20 ng/ml, 24 hrs, normalized to control membranes, FIG. 5
Experimental: Migration was assayed by counting cells that migrated through a porous membrane (20 μm diameter pores) in 24 hours in response to stimulation with platelet-derived growth factor (PDGF-pp).
The initial seed density was 4000 cells per filter (0.3 cm^2) in test media with 1% BSA and 20 ng/ml PDGF-ββ. The cells were then incubated in a humidified environment at 37° C., 5% CO2 for 24 hrs. The cells on the top side of the filter were then scraped away. The cells on bottom side of the filters were then fixed with ice-cold methanol for 10 min. The filters were rinsed with PBS and then stained with HarrisAE Hematoxylin stain for 5 min. and again rinsed with PBS.
The cells were then counted manually under high-power magnification (400×) in quadruplicate.

SMILES: O=C1NC(=O)c2cc(Nc3ccc(F)cc3)c(Nc3ccc(F)cc3)cc21 [CGP53353]
- inhibitory activity / specificity towards PKC (PKC): lower specificity towards PKC isozymes

SMILES: O=C1NC(=O)c2cc(Nc3ccccc3)c(Nc3ccccc3)cc21 [CGP5211]
- inhibitory activity / specificity towards PKC (PKC): some inhibitory activity

SMILES: Cc1ccc(NC(=O)c2ccc(CN3CCN(C)CC3)cc2)cc1Nc1nccc(-c2cccnc2)n1 [STI-571]
- proliferation of VSMCs (BrdU incorporation) (Porcine coronary VSMCs): inhibited the proliferation of VSMCs in a dose-dependent fashion
- proliferation of aortic vascular endothelial cells (BrdU incorporation) [1]: very minimal inhibitory effect
- DNA synthesis in human coronary artery vascular smooth muscle cells (BrdU incorporation) [2]: inhibits DNA synthesis
- migration of human coronary vascular smooth muscle cells [3]: inhibits the migration of human coronary vascular smooth muscle cells in a dose-dependent fashion
